According to patent US11370776B2, “Sulfonylureas and sulfonylthioureas as NLRP3 inhibitors” (Inflazome Limited, priority 2017, dated 2022):
Structures can show the parent of a compound that is named as a salt.

Tests used:
[1] = biological target: T1, NLRP3 (Homo sapiens, UniProt Q96P20); assay: THP-1 cells pyroptosis assay; type: cell-based; set-up: Seed THP-1 cells (25,000 cells/well) containing 1.0 μg/ml LPS; host or cells: THP-1 cells, LPS-primed, nigericin-stimulated; details: THP-1 cells, 1.0 μg/ml LPS, nigericin 5 μM, pyroptosis read with resazurin; read-out: THP IC50
Experimental: The cells were routinely passaged and grown to confluency (˜10^6 cells/ml). On the day of the experiment, THP-1 cells were harvested and resuspended into RPMI medium (without FBS). The cells were then counted and viability (>90%) checked by Trypan blue (Sigma # T8154). […] To this diluted cell solution was added LPS (Sigma # L4524) to give a 1 μg/ml Final Assay Concentration (FAC). 40 μl of the final preparation was aliquoted into each well of a 96-well plate. The plate thus prepared was used for compound screening. THP-1 Cells Pyroptosis Assay The following method step-by-step assay was followed for compound screening. • 1. […] Add 5 μl nigericin (Sigma # N7143) (FAC 5 μM) to all wells • 5. […] At the end of the incubation period, spin plates at 300×g for 3 mins and remove supernatant • 7. Then add 50 μl of resazurin (Sigma # R7017) (FAC 100 μM resazurin in RPMI medium without FBS) and incubate plates for a further 1-2 hrs at 37° C. and 5% CO2 • 8. […] IC50 data is fitted to a non-linear regression equation (log inhibitor vs response-variable slope 4-parameters) [table]

[2] = biological target: T1, NLRP3; assay: Human whole blood IL1β release assay; type: cell-based; set-up: Human whole blood in Li-heparin tubes was obtained from healthy donors; from tissue; host or cells: human whole blood from healthy donors, LPS-primed, nigericin-stimulated; details: human whole blood, 1 μg/ml LPS, nigericin 10 μM, IL-1β release; read-out: HWB IC50
Experimental: Human Whole Blood IL1β Release Assay
For systemic delivery, the ability to inhibit NLRP3 when the compounds are present within the bloodstream is of great importance. For this reason, the NLRP3 inhibitory activity of a number of compounds in human whole blood was investigated in accordance with the following protocol.
Human whole blood in Li-heparin tubes was obtained from healthy donors from a volunteer donor panel. • 1. […] Incubate for 3 hrs at 37° C., 5% CO2 • 4. Add 10 μl Nigericin (Sigma # N7143) (10 μM FAC) to all wells • 5. Incubate for 1 hr at 37° C., 5% CO2 • 6. At the end of the incubation period, spin plates at 300×g for 5 mins to pellet cells and remove 20 μl of supernatant and add to 96-well v-bottom plates for IL-1β analysis (note: these plates containing the supernatants can be stored at −80° C. to be analysed at a later date) • 7. IL-1β was measured according to the manufacturer protocol (Perkin Elmer-AlphaLisa IL-1 Kit AL220E-5000) • 8. IC50 data is fitted to a non-linear regression equation (log inhibitor vs response-variable slope 4-parameters)

T1 sequence (Q96P20 whole entry): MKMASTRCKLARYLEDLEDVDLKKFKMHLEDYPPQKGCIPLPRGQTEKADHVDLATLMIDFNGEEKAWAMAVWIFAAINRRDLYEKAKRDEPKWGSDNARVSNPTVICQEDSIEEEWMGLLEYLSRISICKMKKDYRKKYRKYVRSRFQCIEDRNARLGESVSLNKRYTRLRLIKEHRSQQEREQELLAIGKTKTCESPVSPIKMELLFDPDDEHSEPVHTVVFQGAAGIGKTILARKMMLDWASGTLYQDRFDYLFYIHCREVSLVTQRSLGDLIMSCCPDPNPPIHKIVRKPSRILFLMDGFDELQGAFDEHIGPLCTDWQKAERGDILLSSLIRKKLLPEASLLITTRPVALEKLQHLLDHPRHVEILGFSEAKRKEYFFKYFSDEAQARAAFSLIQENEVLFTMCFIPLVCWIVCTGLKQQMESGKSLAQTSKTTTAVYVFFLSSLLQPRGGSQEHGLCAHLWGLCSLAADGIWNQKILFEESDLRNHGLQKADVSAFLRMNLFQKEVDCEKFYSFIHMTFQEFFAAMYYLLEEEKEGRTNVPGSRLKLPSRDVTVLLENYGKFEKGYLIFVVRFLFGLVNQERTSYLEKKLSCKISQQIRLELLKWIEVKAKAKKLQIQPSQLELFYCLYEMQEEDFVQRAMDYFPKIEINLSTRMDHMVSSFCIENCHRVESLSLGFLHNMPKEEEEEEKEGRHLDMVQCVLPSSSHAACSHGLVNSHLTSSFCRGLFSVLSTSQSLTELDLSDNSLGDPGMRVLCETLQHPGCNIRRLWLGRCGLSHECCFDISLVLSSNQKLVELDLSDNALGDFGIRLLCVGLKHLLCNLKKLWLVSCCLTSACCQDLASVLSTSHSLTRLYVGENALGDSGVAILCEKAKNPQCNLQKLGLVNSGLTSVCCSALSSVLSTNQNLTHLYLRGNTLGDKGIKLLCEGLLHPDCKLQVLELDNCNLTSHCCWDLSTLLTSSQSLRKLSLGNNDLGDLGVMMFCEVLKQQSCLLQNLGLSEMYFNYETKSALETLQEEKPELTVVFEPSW

Structure (SMILES)	IC50 [1]	IC50 [2]
O=C(Nc1c2c(cc3c1CCC3)CCC2)NS(=O)(=O)c1cncnc1 [Example 10, N-((1,2,3,5,6,7-Hexahydro-s-indacen-4-yl)carbamoyl) pyrimidine-5-sulfonamide, Potassium Salt]	< 10000 nM	< 7500 nM
COc1cc(-c2ccc3c(c2NC(=O)NS(=O)(=O)c2cnc(N(C)C)cn2)CCC3)ccn1 [Example 40, 5-(Dimethylamino)-N-((5-(2-methoxypyridin-4-yl)-2,3-dihydro-1H-inden-4-yl)carbamoyl)pyrazine-2-sulfonamide]	< 800 nM	< 2500 nM
CN(C)c1cnnc(S(=O)(=O)NC(=O)Nc2c(-c3ccncc3)cc(F)c3c2CCC3)c1 [Example 53, 5-(Dimethylamino)-N-((7-fluoro-5-(pyridin-4-yl)-2,3-dihydro-1H-inden-4-yl)carbamoyl) pyridazine-3-sulfonamide]	< 800 nM	< 2500 nM
COc1cc(-c2ccc3c(c2NC(=O)NS(=O)(=O)c2ccnc(CN(C)C)c2)CCC3)ccn1 [Example 59, 2-((Dimethylamino)methyl)-N-((5-(2-methoxypyridin-4-yl)-2,3-dihydro-1H-inden-4-yl)carbamoyl)pyridine-4-sulfonamide, sodium salt]	< 800 nM	< 2500 nM
CC(C)c1cccc(C(C)C)c1NC(=O)NS(=O)(=O)c1cccnn1 [Example 7, N-((2,6-Diisopropylphenyl)carbamoyl)pyridazine-3-sulfonamide, Sodium Salt]	< 10000 nM	< 2500 nM
